Source: patent publication US20220119376A1, “TRICYCLIC COMPOUNDS ACTING ON CRBN PROTEINS” (CHIA TAI TIANQING PHARMACEUTICAL GROUP CO., LTD., priority 2018, published 2022)
Where a name gives a salt, the structure may show the parent alone. Each block holds one compound with its values, some of them ahead of it.

What was measured:
[1] = tested on: MM.1S; test: Antiproliferative effect in multiple myeloma cell line MM.1S (CellTiter-Glo); type: cell-based; settings: Homo sapiens, MM1.S, 120 h, MM.1S cells, 5 days of compound co-incubation
Protocol: (§1) Periodical passaging was performed, and cells in logarithmic growth phase were taken for plating. • (1) Cells were stained with trypan blue and viable cells were counted. • (2) The cell concentration was adjusted to an appropriate level. [table] • (3) 90 μL of cell suspension was added to each well in the culture plate and cell-free medium was added to the blank control wells according to the table above. • (4) The culture plate was incubated overnight in an incubator at 37° C./5% CO2 and 100% relative humidity. […] It was prepared freshly prior to use. […] After the compound or DMSO was added, the mixture was pipetted and mixed well. […] 10 μL of DMSO-cell culture mixture was added to the vehicle control and blank control wells. […] The following procedure was performed according to the instructions of Promega CellTiter-Glo luminescence cell viability assay kit (Promega-G7573). […] The cell plate was wrapped with aluminum foil to keep out of light. (7) The plate was shaken on an orbital shaker for 2 min to induce cell lysis. (8) The culture plate was placed at room temperature for 10 min to stabilize the luminescence signals. (9) The luminescence signals were detected on 2104 EnVision plate reader. […] Inhibition rates of compounds at different concentrations were calculated in Excel, followed by plotting the inhibition curves and calculating relevant parameters including minimum inhibition rate (%), maximum inhibition rate (%) and IC50 using GraphPad Prism software.

[2] = tested on: NCI-H929; test: Antiproliferative effect in myeloma cell line NCI-H929 (CellTiter-Glo); type: cell-based; settings: Homo sapiens, 120 h, NCI-H929 cells, 5 days of compound co-incubation
Protocol: as §1

[3] = Pharmacokinetic evaluation of compounds in mice; settings: male, C57BL, mouse, in vivo
Source text: (§2) The test animals in the study were C57BL male mice, and the LC/MS/MS method was used to quantitatively determine the drug concentration in the plasma of the mice at different time points after intravenous injection or oral administration of the test compounds and the reference compound, thus evaluating the pharmacokinetic characteristics of the test drugs in the mice.
C57Balb/C (C57) mice (male, 20-30 g, 7-10 weeks old, Beijing Vital River or Shanghai SLAC).
Clear or suspended solution of the test compound was injected into C57 mice (overnight fasting) via the tail vein or administered intragastrically to C57 mice (overnight fasting). For intravenous injection, […] of blood was each collected by jugular vein puncture at 0 h (before injection) and 0.0833 h, 0.25 h, 0.5 h, 1 h, 2 h, 4 h, 6 h, 8 h and 24 h (after injection), and then placed in an anticoagulation tube added with EDTA-K2 (Jiangsu KANGJIAN Medical Apparatus Co., Ltd.), and the mixture was thoroughly vortex-mixed at 4° C. and centrifuged at 13000 rpm for 10 min; for intragastric administration, blood was collected by jugular vein puncture at 0 h (before administration) and 0.5 h, 1 h, 2 h, 4 h, 6 h, 8 h and 24 h (after administration), and then placed in an anticoagulation tube added with EDTA-K2 (Jiangsu KANGJIAN Medical Apparatus Co., Ltd.), and the mixture was thoroughly vortex-mixed and centrifuged at 13000 rpm for 10 min. The plasma concentration was measured by LC-MS/MS method, and the relevant pharmacokinetic parameters were calculated by WinNonlin™ Version 6.3 (Pharsight, Mountain View, Calif.) pharmacokinetic software using non-compartmental model linear logarithmic trapezoid method.

[4] = Pharmacokinetic evaluation of compounds in rats; type: in vivo, SD male rats; settings: for clearance / half-life / bioavailability: male, Sprague Dawley, rat, plasma; for bioavailability: oral, intragastric administration 10 mg/kg vs intravenous 2 mg/kg, read-out: Bioavailability F
Source text: as §2, with “SD” for “C57BL”, “rats,” for “mice,”, “rats” for “mice”, “rats.” for “mice.”
Sprague Dawley (SD) rats (male, 200-300 g, 7-10 weeks old, Beijing Vital River or Shanghai SLAC).
Clear solution of the test compound was injected into SD rats (overnight fasting) via the tail vein or administered intragastrically to SD rats (overnight fasting). For intravenous injection, 200 μL of blood was each collected by jugular vein puncture at 0 h (before injection) and 0.0833 h, 0.25 h, 0.5 h, 1 h, 2 h, 4 h, 6 h, 8 h and 24 h (after injection), and then placed in an anticoagulation tube added with EDTA-K2 (Jiangsu KANGJIAN Medical Apparatus Co., Ltd.), and the mixture was thoroughly vortex-mixed at 4° C. and centrifuged at 13000 rpm for 10 min; for intragastric administration, blood was collected by jugular veinpuncture at 0 h (before administration) and 0.5 h, 1 h, 2 h, 4 h, 6 h, 8 h and 24 h (after administration), and then placed in an anticoagulation tube added with EDTA-K2 (Jiangsu KANGJIAN Medical Apparatus Co., Ltd.), and the mixture was thoroughly vortex-mixed and centrifuged at 13000 rpm for 10 min. The plasma concentration was measured by LC-MS/MS method, and the relevant pharmacokinetic parameters were calculated by WinNonlin™ Version 6.3 (Pharsight, Mountain View, Calif.) pharmacokinetic software using non-compartmental model linear logarithmic trapezoid method.

[5] = tested on: human myeloma MM.1S cells; test: In vivo pharmacodynamic study in subcutaneous xenograft tumor CB-17 SCID model of human myeloma MM.1S cells; parameters: species or system CB-17 SCID mice; settings: for Tumor volume (Day 0): Day 0 (baseline at grouping), 5 mg/kg oral twice daily; for Tumor volume (Day 24) / TGI (Day 24): Day 24, 5 mg/kg oral twice daily; for TGI (Day 24): tumor growth inhibition vs vehicle control
Protocol: Cell culturing: human multiple myeloma cells MM.1S (ATCC® CRL-2974™) were cultured in vitro, in a semi-suspension manner, with an ATCC-formulated RPMI-1640 medium containing 10% fetal calf serum, 100 U/mL penicillin and 100 μg/mL streptomycin in an incubator at 37° C./5% CO2. Passages were performed twice a week.
At a required number, the cells were taken, counted and inoculated.
Animals: CB-17 SCID mice, female, 6-8 weeks old, weight of 18-20 g.
0.2 mL (5×10^6 cells) of MM.1S cells (along with matrigel in a volume ratio of 1:1) was subcutaneously inoculated on the right back of each mouse, and the mice were divided into groups for administration after the mean tumor volume was approximately 130 mm^3. Seven days constitute an administration cycle, twice daily with a 12 h interval, and the test compound was orally administered for a total of four cycles. Test compounds WX009 and WX023 were administered at a dose of 5 mg/kg, tumor volume was measured twice weekly with a two-dimensional caliper, and the volume was measured in cubic millimeters and calculated according to the following formula: V=0.5 a×b2 where a and b are the long and short diameters, respectively, of the tumor. Anti-tumor efficacy was determined by dividing the mean tumor increase volume of compound-treated animals by the mean tumor increase volume of untreated animals.

[6] = intragastric administration 10 mg/kg

IC50 [1]: 3.4 nM
Compound: O=C1CCC(c2noc3ccc4cc(OCCN5CCCC5)ccc4c23)C(=O)N1 (stereo not drawn) [WX027]

IC50 [1]: 6.4 nM | IC50 [2]: 10.3 nM | bioavailability [3]: 100% | Area under plasma concentration-time curve (0-inf) ([3]; iv, 2 mg/kg): 6.87 µM·h | clearance ([3]; iv, 2 mg/kg): 11.8 mL/min/kg | half-life ([3]; iv, 2 mg/kg): 3.37 h | Area under plasma concentration-time curve (0-inf) ([3]; po, 10 mg/kg): 34.40 µM·h | Peak concentration ([3]; po, 10 mg/kg): 17.50 µM | Time to peak ([3]; po, 10 mg/kg): 0.25 h | Area under plasma concentration-time curve (0-inf) [4, 6]: 19.69 µM·h | Peak concentration [4, 6]: 3.08 µM | Time to peak [4, 6]: 0.75 h | Area under plasma concentration-time curve (0-inf) ([4]; intravenous injection 2 mg/kg): 3.76 µM·h | clearance ([4]; intravenous injection 2 mg/kg): 21.7 mL/min/kg | half-life ([4]; intravenous injection 2 mg/kg): 1.24 h | bioavailability [4]: 73.7%
Compound: O=C1CCC(c2noc3ccc4cc(OCCN5CCOCC5)ccc4c23)C(=O)N1 (stereo not drawn) [WX023]
Tumor volume (Day 0) [5]: 130 ± 8 mm^3 | Tumor volume (Day 24) [5]: 15 ± 4 mm^3 | TGI (Day 24) [5]: 105%

IC50 [1]: 3.4 nM
Compound: O=C1CCC(c2noc3ccc4cc(CO)ccc4c23)C(=O)N1 (stereo not drawn) [WX061]

More lines, now with the values behind:

Compound: O=C1CCC(c2noc3ccc4ccccc4c23)C(=O)N1 (stereo not drawn) [WX004]
IC50 [1]: 6.6 nM | IC50 [2]: 21.2 nM

Compound: O=C1CCC(c2noc3ccc4ccoc4c23)C(=O)N1 (stereo not drawn) [WX006]
IC50 [1]: 2 nM

Compound: COc1ccc2c(ccc3onc(C4CCC(=O)NC4=O)c32)c1 (stereo not drawn) [WX013]
IC50 [1]: 4.5 nM

Compound: O=C1CCC(c2noc3ccc4[nH]ccc4c23)C(=O)N1 (stereo not drawn) [WX009]
Area under plasma concentration-time curve (0-inf) ([3]; iv, 2 mg/kg): 5.34 µM·h | Area under plasma concentration-time curve (0-inf) ([3]; po, 10 mg/kg): 12.29 µM·h | Peak concentration ([3]; po, 10 mg/kg): 10.52 µM | Time to peak ([3]; po, 10 mg/kg): 0.25 h | half-life ([3]; mice, intravenous injection 2 mg/kg, read-out: Half life (converted)): 0.89 h | clearance ([3]; mice, intravenous injection 2 mg/kg, read-out: Plasma clearance): 23.2 mL/min/kg | bioavailability ([3]; mice, oral administration 10 mg/kg vs intravenous 2 mg/kg, read-out: Bioavailability F): 46.1% | Area under plasma concentration-time curve (0-inf) [4, 6]: 26.34 µM·h | Peak concentration [4, 6]: 12.75 µM | Time to peak [4, 6]: 0.50 h | Area under plasma concentration-time curve (0-inf) ([4]; intravenous injection 2 mg/kg): 7.92 µM·h | clearance ([4]; intravenous injection 2 mg/kg): 15.9 mL/min/kg | half-life ([4]; intravenous injection 2 mg/kg): 0.9 h | bioavailability [4]: 66.5% | Tumor volume (Day 0) [5]: 131 ± 12 mm^3 | Tumor volume (Day 24) [5]: 14 ± 5 mm^3 | TGI (Day 24) [5]: 105%

Compound: O=C1CCC(c2noc3cc4occc4cc23)C(=O)N1 (stereo not drawn) [WX005]
IC50 [2]: 19.1 nM

Compound: CN(C)CCOc1ccc2c(ccc3onc(C4CCC(=O)NC4=O)c32)c1 (stereo not drawn) [WX015]
IC50 [1]: 3.8 nM

Compound: O=C1CCC(c2noc3ccc4cc(OCCNC5CCOCC5)ccc4c23)C(=O)N1 (stereo not drawn) [Hydrochloride of WX039]
IC50 [1]: 2.6 nM
